According to patent publication US7208524B2, “5-amidino-2-hydroxybenzenesulfonamide derivatives, pharmaceutical compositions containing the same and intermediates for their preparation” (Kissei Pharmaceutical Co., Ltd., priority 2000, dated 2007):

What was measured:
[1] = molecular target: T1, human thrombin (Homo sapiens, UniProt P00734); assay: Measurement of inhibitory activity for thrombin (S-2238 chromogenic substrate); format: biochemical; conditions: S-2238, 10 minutes at 37° C., pH 8.4
T1 construct: human thrombin (Sigma Chemical Company); purchased Sigma Chemical Company
Protocol: (§1) 2.5 μL of a dimethylsulfoxide solution of a test compound, 187.5 μL of 100 mM tris-200 mM NaCl buffer (pH 8.4) and 50 μL of 1 mM S-2238 (Daiichi Pure Chemicals) aqueous solution were poured into 96 well microplate. Then 10 μL of 2.0 U/mL human thrombin (Sigma Chemical Company) in gelatin-glycine buffer was added and the mixture was incubated for 10 minutes at 37° C. The reaction was terminated with the addition of 50 μL of 60% acetic acid and absorbance (405 nm) was measured by a microplate reader (SPECTRAmax 250, Molecular Devices).
The group with 2.5 μL of the dimethylsulfoxide solution instead of the test compound solution was defined as the control, and the group with 10 μL of the gelatin-glycine buffer solution instead of human thrombin was defined as the blank. The concentration of a test compound that inhibited the absorbance of control by 50% (IC50) was obtained, and this value was used as the index of inhibitory activity for thrombin.

[2] = system: normal human plasma; assay: Measurement of anticoagulation effects (prolongation of plasma prothrombin time)
Protocol: Two μL of a dimethylsulfoxide solution of a test compound was put in the process tube and then incubated at 37° C. One minute after addition of 48 μL of normal human plasma (George King Bio-Medical Inc), 100 μL of plasma prothrombin time reagent (Boehringer Mannheim) prewarmed at 37° C. was added into the mixture. Prothrombin time was measured with a coagulometer (ST4, Boehringer Mannheim).
The group without any test compound was defined as the control. The concentration of test compound that prolonged the clotting time of the control by 2 times (CT2) was obtained and, this value was used as the index of anticoagulation activity.

[3] = system: Male ICR mice; assay: Acute toxicity test; format: in vivo; conditions: 50.0 mg/10.0 mL/kg into tail vein, survival judged for 24 hours, groups of 5
Protocol: Male ICR mice aged 7 weeks (SLC) were divided into several groups consisted of 5 mice. A solution containing a test compound was prepared at the concentration that became the administration volume of the test compound to be 50.0 mg/10.0 mL/kg. The solution was administered into tail vein at an infusion rate of 1 mL/minute. Observations were performed at constant interval, and survival rate was judged for 24 hours. Results were shown as Table 5, and no death case was observed.

[4] = molecular target: T2, human activated blood coagulation factor X (Homo sapiens, UniProt P00742); assay: Measurement of inhibitory activity for activated blood coagulation factor X (S-2222 chromogenic substrate); format: biochemical; conditions: S-2222, 10 minutes at 37° C., pH 8.4
T2 construct: purchased Calbiochem
Protocol: as §1, with “S-2222” for “S-2238”, “0.6” for “2.0”, “activated blood coagulation factor X (Calbiochem)” for “thrombin (Sigma Chemical Company)”
Target sequence in this assay (P00742 235-488 limits assumed): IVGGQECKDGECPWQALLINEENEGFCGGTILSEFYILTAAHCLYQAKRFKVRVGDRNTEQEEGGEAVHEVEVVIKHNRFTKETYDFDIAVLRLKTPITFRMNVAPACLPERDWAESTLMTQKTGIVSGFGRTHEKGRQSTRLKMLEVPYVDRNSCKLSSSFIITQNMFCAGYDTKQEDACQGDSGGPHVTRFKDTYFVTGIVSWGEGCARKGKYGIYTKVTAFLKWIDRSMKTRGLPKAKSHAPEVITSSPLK
Target sequence in this assay (P00742 41-179 partner limits assumed): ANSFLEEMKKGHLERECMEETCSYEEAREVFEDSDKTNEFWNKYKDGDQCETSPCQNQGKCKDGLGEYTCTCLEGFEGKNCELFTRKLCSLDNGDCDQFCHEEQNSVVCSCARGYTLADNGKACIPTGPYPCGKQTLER
The group with 2.5 μL of the dimethylsulfoxide solution instead of the test compound solution was defined as the control, and the group with 10 μL of the gelatin-glycine buffer solution instead of human activated blood coagulation factor X was defined as the blank.

[5] = molecular target: T2, human activated blood coagulation factor X; assay: Oral administration test in rats: anti-activated blood coagulation factor X activity in plasma; format: in vivo, rat; conditions: male Wistar rats, 30 minutes after oral administration, 30 mg/kg; plasma tested against human factor Xa
Protocol: (§2) Male Wistar rats aged 6–9 weeks (SLC) fasted overnight were used. A test compound was dissolved or suspended in 0.5% methylcellulose solution at the concentration of 6.0 mg/mL. Then 5.0 mL/kg of that was orally administrated into the rats. Before and at proper time points after administration of the test compound, citrated (1:10 dilution, 3.13% sodium citrate) blood was collected from the jugular vein. Plasma samples were obtained by centrifugation.
2.5 μL of plasma sample, 200 μL of 100 mM tris-200 mM NaCl buffer (pH 8.4) and 10 μL of 0.06 U/mL human activated blood coagulation factor X (Calbiochem) in gelatin-glycine buffer were poured into 96 well microplate. Then 50 μL of 1 mM S-2222 (Daiichi Pure Chemicals) aqueous solution was added and the mixture was incubated for 10 minutes at room temperature. The reaction was terminated with the addition of 50 μL of 60% acetic acid and absorbance (405 nm) was measured by a microplate reader (SPECTRAmax 250, Molecular Devices).
The group with 2.5 μL of the control plasma instead of the plasma sample was defined as the control, and the group with 10 μL of gelatin-glycine buffer solution instead of human activated blood coagulation factor X was defined as the blank. The inhibitory % of plasma sample was calculated from absorbance of the control as 100% and this value was used as the index of anti-activated blood coagulation factor X activity in plasma.
(§3) 4) Results of anti-activated blood coagulation factor X activity in plasma and PT ratio at 30 minutes after oral administration of each test compound at a dose of 30 mg/kg were shown as Table 4.
Target sequence in this assay (P00742 235-488 limits assumed): as the sequence (P00742 235-488 limits assumed) above
Target sequence in this assay (P00742 41-179 limits assumed): as the sequence (P00742 41-179 partner limits assumed) above

[6] = system: plasma prothrombin time; assay: Oral administration test in rats: prothrombin time (PT) of plasma; format: in vivo, rat; conditions: male Wistar rats, 30 minutes after oral administration, 30 mg/kg; PT after administration to that before
Protocol: as §2
Fifty μL of plasma was put in the process tube and then incubated at 37° C. One minute later, 100 μL of plasma PT reagent (Boehringer Mannheim) prewarmed at 37° C. was added into the mixture. PT was measured with a coagulometer (ST4, Boehringer Mannheim).
The ratio of PT at each time point after administration of the test compound to that of before administration was used as the index of anticoagulation activity.
as §3

| IC50 [1] [µM] | IC50 [4] [nM] | Anti-activated blood coagulation factor X activity in plasma (%) [5] [%] | SMILES | Anticoagulation activity (μM): concentration that prolonged the clotting time of the control by 2 times (CT2) [2] [µM] | Death case [3] | PT ratio [6] |
| --- | --- | --- | --- | --- | --- | --- |
| > 100 | 16 | – | CC(C)c1ccc(CCNS(=O)(=O)c2cc(C(=N)N)ccc2O)c(S(N)(=O)=O)c1 [Compound 52, 5-Carbamimidoyl-2-hydroxy-N-[2-(4-isopropyl-2-sulfamoylphenyl)ethyl]benzenesulfonamide] | – | – | – |
| > 100 | 51 | – | Cc1nc(CN(CCc2ccc(C(C)C)cc2OCC(=O)O)S(=O)(=O)c2cc(C(=N)N)ccc2O)cs1 [Compound 53, [2-[2-[(5-Carbamimidoyl-2-hydroxybenzenesulfonyl)-(2-methyl-1,3-thiazol-4-ylmethyl)amino]ethyl]-5-isopropylphenoxy]acetic acid] | – | – | – |

More lines, now with the values behind:

| SMILES | IC50 [1] [µM] | IC50 [4] [nM] | Anti-activated blood coagulation factor X activity in plasma (%) [5] [%] | Anticoagulation activity (μM): concentration that prolonged the clotting time of the control by 2 times (CT2) [2] [µM] | Death case [3] | PT ratio [6] |
| --- | --- | --- | --- | --- | --- | --- |
| CS(=O)(=O)c1ccccc1-c1ccc(CCNS(=O)(=O)c2cc(C(=N)N)ccc2O)c(OCC(=O)O)c1.Cl [Compound 33, [4-[2-(5-Carbamimidoyl-2-hydroxybenzenesulfonylamino)-ethyl]-2′-methanesulfonoylbiphenyl-3-yloxy]acetic acid hydrochloride] | > 100 | – | – | 0.52 | – | – |
| CC(C)c1ccc(CCNS(=O)(=O)c2cc(C(=N)N)ccc2O)c(OCC(=O)O)c1 [Compound 42, [2-[2-(5-Carbamimidoyl-2-hydroxybenzenesulfonylamino)-ethyl]-5-isopropylphenoxy]acetic acid] | > 100 | 100 | – | 2.4 | 0/5 | – |
| CCOC(=O)COc1cc(-c2ccccc2S(C)(=O)=O)ccc1CCNS(=O)(=O)c1cc(C(=N)NO)ccc1O [Compound 43, Ethyl[4-[2-[2-hydroxy-5-(N-hydroxycarbamimidoyl)-benzenesulfonylamino]ethyl]-2′-mthanesulfonylbiphenyl-3-yloxy]acetate] | – | – | 32.0 | – | – | 1.31 |
| CCCCOC(=O)COc1cc(-c2ccccc2S(C)(=O)=O)ccc1CCNS(=O)(=O)c1cc(C(=N)NO)ccc1O.Cl [Compound 48, n-Butyl[4-[2-[2-Hydroxy-5-(N-hydroxycarbamimidoyl)-benzenesulfonylamino]ethyl]-2′-methanesulfonylbiphenyl-3-yloxy]acetate hydrochloride] | – | – | 58.2 | – | – | 1.50 |
| CS(=O)(=O)c1ccccc1-c1ccc(CCNS(=O)(=O)c2cc(C(=N)NO)ccc2O)c(OCC(=O)OC2CCCCC2)c1 [Compound 49, Cyclohexyl[4-[2-[2-hydroxy-5-(N-hydroxycarbamimidoyl)-benzenesulfonylamino]ethyl]-2′-methanesulfonylbiphenyl-3-yloxy]acetate] | – | – | 51.4 | – | – | 1.43 |
